Experimental data taken from ChEMBL document CHEMBL3525933 (Drug Metab Dispos, 2012).

Columns and labels:
Plasma [1] = experiment: Drug metabolism in Wistar rat plasma assessed as retention time by HPLC-DAD analysis; type: ADME, cell-free
Rattus norvegicus = organism: Rattus norvegicus; experiment: Drug retention time in Wistar rat by HPLC-DAD analysis; type: ADME, organism-based
[2] = Elimination half life in pseudo-germ free Wistar rat at 400 mg/kg, po administered as single dose by HPLC-DAD analysis; type: ADME, organism-based; parameters: dose 400 mg/kg, route oral; conditions: in vivo, read-out: beta t1/2 (converted)
[3] = MRT(0 to infinity) in streptozotocin-induced diabetic Wistar rat at 400 mg/kg, po administered as single dose by HPLC-DAD analysis; type: ADME, organism-based; parameters: dose 400 mg/kg, route oral; conditions: in vivo
[4] = Tmax in conventional Wistar rat at 400 mg/kg, po administered as single dose by HPLC-DAD analysis; type: ADME, organism-based; parameters: dose 400 mg/kg, route oral; conditions: in vivo
[5] = AUC(0 to infinity) in conventional Wistar rat at 400 mg/kg, po administered as single dose by HPLC-DAD analysis; type: ADME, organism-based; parameters: time infinity, dose 400 mg/kg, route oral; conditions: plasma
[6] = Drug excretion in streptozotocin-induced diabetic Wistar rat urine assessed as norathyriol metabolite level at 400 mg/kg, po administered as single dose by HPLC-DAD analysis; type: ADME, organism-based; parameters: dose 400 mg/kg, route oral; conditions: in vivo
[7] = Drug excretion in pseudo-germ free Wistar rat urine assessed as 1,7-dihydroxyxanthone metabolite level at 400 mg/kg, po administered as single dose by HPLC-DAD analysis; type: ADME, organism-based; parameters: dose 400 mg/kg, route oral; conditions: in vivo
Plasma [8] = experiment: Stability in Wistar rat plasma measured for 24 hrs at room temperature by HPLC-DAD analysis; type: ADME, cell-free
[9] = Elimination half life in streptozotocin-induced diabetic Wistar rat at 400 mg/kg, po administered as single dose by HPLC-DAD analysis; type: ADME, organism-based; parameters: dose 400 mg/kg, route oral; conditions: in vivo, read-out: beta t1/2 (converted)
Plasma [10] = experiment: Drug recovery in Wistar rat plasma at 2000 ng/ml by HPLC-DAD analysis; type: ADME, cell-free
[11] = Drug excretion in conventional Wistar rat urine assessed as unchanged drug level at 400 mg/kg, po administered as single dose by HPLC-DAD analysis; type: ADME, organism-based; parameters: dose 400 mg/kg, route oral; conditions: in vivo
[12] = Cmax in conventional Wistar rat at 400 mg/kg, po administered as single dose by HPLC-DAD analysis; type: ADME, organism-based; parameters: dose 400 mg/kg, route oral; conditions: in vivo
[13] = AUC(0 to t) in pseudo-germ free Wistar rat at 400 mg/kg, po administered as single dose by HPLC-DAD analysis; type: ADME, organism-based; parameters: dose 400 mg/kg, route oral; conditions: plasma
[14] = Drug excretion in streptozotocin-induced diabetic Wistar rat urine assessed as unchanged drug level at 400 mg/kg, po administered as single dose by HPLC-DAD analysis; type: ADME, organism-based; parameters: dose 400 mg/kg, route oral; conditions: in vivo
[15] = Cmax in pseudo-germ free Wistar rat at 400 mg/kg, po administered as single dose by HPLC-DAD analysis; type: ADME, organism-based; parameters: dose 400 mg/kg, route oral; conditions: in vivo
Plasma [16] = experiment: Drug recovery in Wistar rat plasma at 500 ng/ml by HPLC-DAD analysis; type: ADME, cell-free
[17] = Drug excretion in conventional Wistar rat urine assessed as 1,7-dihydroxyxanthone metabolite level at 400 mg/kg, po administered as single dose by HPLC-DAD analysis; type: ADME, organism-based; parameters: dose 400 mg/kg, route oral; conditions: in vivo
Plasma [18] = experiment: Drug level in streptozotocin-induced diabetic Wistar rat plasma treated with mangiferin at 400 mg/kg, po administered as single dose by HPLC-DAD analysis; type: ADME, organism-based; parameters: dose 400 mg/kg, route oral; conditions: in vivo
[19] = Drug excretion in pseudo-germ free Wistar rat urine assessed as norathyriol metabolite level at 400 mg/kg, po administered as single dose by HPLC-DAD analysis; type: ADME, organism-based; parameters: dose 400 mg/kg, route oral; conditions: in vivo
[20] = Drug excretion in pseudo-germ free Wistar rat feces assessed as unchanged drug level at 400 mg/kg, po administered as single dose by HPLC-DAD analysis; type: ADME, organism-based; parameters: dose 400 mg/kg, route oral; conditions: in vivo
[21] = Drug excretion in pseudo-germ free Wistar rat feces assessed as 1,7-dihydroxyxanthone metabolite level at 400 mg/kg, po administered as single dose by HPLC-DAD analysis; type: ADME, organism-based; parameters: dose 400 mg/kg, route oral; conditions: in vivo
[22] = Drug excretion in conventional Wistar rat urine assessed as norathyriol metabolite level at 400 mg/kg, po administered as single dose by HPLC-DAD analysis; type: ADME, organism-based; parameters: dose 400 mg/kg, route oral; conditions: in vivo
Plasma [23] = experiment: Drug uptake in pseudo-germ free Wistar rat plasma at 400 mg/kg, po administered as single dose by HPLC-DAD analysis; type: ADME, organism-based; parameters: dose 400 mg/kg, route oral; conditions: in vivo
Plasma [24] = experiment: Drug metabolism in pseudo-germ free Wistar rat plasma assessed as norathyriol metabolite formation at 400 mg/kg, po administered as single dose by HPLC-DAD analysis; type: ADME, organism-based; parameters: dose 400 mg/kg, route oral; conditions: in vivo
[25] = Drug excretion in streptozotocin-induced diabetic Wistar rat urine assessed as 1,7-dihydroxyxanthone metabolite level at 400 mg/kg, po administered as single dose by HPLC-DAD analysis; type: ADME, organism-based; parameters: dose 400 mg/kg, route oral; conditions: in vivo
Plasma [26] = experiment: Drug metabolism in pseudo-germ free Wistar rat plasma assessed as 1,7-dihydroxyxanthone metabolite formation at 400 mg/kg, po administered as single dose by HPLC-DAD analysis; type: ADME, organism-based; parameters: dose 400 mg/kg, route oral; conditions: in vivo
[27] = Tmax in streptozotocin-induced diabetic Wistar rat at 400 mg/kg, po administered as single dose by HPLC-DAD analysis; type: ADME, organism-based; parameters: dose 400 mg/kg, route oral; conditions: in vivo
[28] = MRT(0 to t) in streptozotocin-induced diabetic Wistar rat at 400 mg/kg, po administered as single dose by HPLC-DAD analysis; type: ADME, organism-based; parameters: dose 400 mg/kg, route oral; conditions: in vivo
[29] = MRT(0 to t) in pseudo-germ free Wistar rat at 400 mg/kg, po administered as single dose by HPLC-DAD analysis; type: ADME, organism-based; parameters: dose 400 mg/kg, route oral; conditions: in vivo

Retention_time (Plasma [1]): 5.5 min
Retention_time (Rattus norvegicus): 15.2 min
half-life [2]: 2.59 h
MRT inf [3]: 5.45 h
Tmax [4]: 0.73 h
AUC(0-inf) [5]: 3820 ng·h/mL
Drug excretion [6]: metabolite_detected
Drug excretion [7]: metabolite_not_detected
Stability (Plasma [8]): Stable
half-life [9]: 2.6 h
Drug recovery (Plasma [10]): 75.8%
Drug excretion [11]: metabolite_detected
Cmax [12]: 715 ng/mL
AUC(0-t) [13]: 4320 ng·h/mL
Drug excretion [14]: metabolite_detected
Cmax [15]: 452 ng/mL
Drug recovery (Plasma [16]): 75.5%
Drug excretion [17]: metabolite_not_detected
Drug metabolism (Plasma [18]): metabolite_detected
Drug excretion [19]: metabolite_not_detected
Drug excretion [20]: metabolite_detected
Drug excretion [21]: metabolite_not_detected
Drug excretion [22]: metabolite_detected
Drug uptake (Plasma [23]): Active
Drug metabolism (Plasma [24]): metabolite_not_detected
Drug excretion [25]: metabolite_detected
Drug metabolism (Plasma [26]): metabolite_not_detected
Tmax [27]: 2.25 h
MRT last [28]: 5.4 h
MRT last [29]: 7.42 h
Structure (SMILES): O=c1c2cc(O)c(O)cc2oc2cc(O)c([C@@H]3O[C@H](CO)[C@@H](O)[C@H](O)[C@H]3O)c(O)c12 [MANGIFERIN]
